Measurements reported in paper PMC5824666, “The P-type ATPase inhibiting potential of polyoxotungstates” (Metallomics, 2018).
pIC50: −log10 of the molar value. Where “and” joins values, the source holds several entries; their conditions need not be identical. Identical values can stand only once. Like-named read-outs stand apart in the source and are kept apart here.

Experiments:
[1] = test system: Na^+/K^+-ATPase from basal membrane of opercular epithelium; assay: Epithelial short circuit current (Isc) in Ussing chambers ex vivo, POT added basolaterally; format: cell-based, killifish (F. heteroclitus); details: basolateral; for Maximum inhibition: % of basal Isc
Text: Epithelial tissues can transport ions and generate a transepithelial voltage termed “active transport potential”, which is caused by the asymmetric distribution of ion channels and transporters on the apical and basolateral membranes. The net movement of charges from the apical to the basolateral side (and vice versa) generates a voltage equal to the voltage differences between the apical and basolateral membranes. Ex vivo, the short circuit current (Isc) is an accurate reflection of the secretory/absorptive capacity of the tissue when short-circuited. In the opercular epithelium of killifish used for our studies, Isc is a direct measure of apical chloride secretion mediated by chloride channels, which relies on an intact basolateral Na^+/K^+-ATPase function.[43],[44]
Methodology for the ex vivo opercular epithelia preparation followed our current methods.[45] Fish were anaesthetized with 2-phenoxyethanol (1 : 2000 v/v), sacrificed by decapitation and the cranium was cut longitudinally. The gills and other tissue remains were removed carefully and the epithelial skin covering the opercular bone were dissected out and transferred to fresh-gassed saline (99.7 : 0.3 O2/CO2) with the following composition (all values in mM): NaCl, 160; MgSO4, 0.93; NaH2PO4, 3.0; CaCl2, 1.5; NaHCO3, 17.85; KCl, 3.0; glucose, 5.5; HEPES (pH 7.8), 5.0. The epithelia were overlaid onto a thin bore polythene net, protected between two parafilm gaskets and pinned over the circular aperture of a tissue holder (P2410, 0.20 cm^2, Physiological Instruments, San Diego, USA), with the perimeter area lightly greased with vacuum silicone to minimize tissue edge damage. The mounted tissue was positioned between the two halves of the Ussing chamber (P2400, Physiological Instruments, San Diego, USA) with 4 mL of gassed saline at 22 °C and gassed with a 99.7 : 0.3 O2/CO2 mix to provide oxygenation, good mixing by gas lift and pH control (pH = 7.8).
The preparations were left to stand for at least 60 min or until a steady basal measurement of bioelectrical variables was achieved. Measurement of the short circuit current (Isc, μA cm^–2) was performed at symmetric conditions under voltage clamp to 0 mV. The open circuit potential (Vt, mV) and Isc were monitored by means of Ag/AgCl electrodes connected to the chambers by 3 mm bore agar bridges (1 M KCl in 3% agar). Clamping of epithelia to 0 mV and recording of Isc was performed by VCC600 voltage clamp amplifiers (Physiologic Instruments, San Diego, USA). Epithelial resistance (Rt, Ω cm^2) was manually calculated (Ohm's law) using the current deflections induced by bilateral 1 mV pulses of 3 s every minute. Bioelectrical data were continuously digitized through a Lab-Trax-4 (WPI, Sarasota, US) onto a Macbook laptop using Labscribe3 Software (Iworks systems, Dover, US). Upon signal baseline stabilization, freshly prepared POT solutions were added to the basal or the apical side of the chamber (Fig. 2) and the effects on the Na^+/K^+-ATPase from basal membrane or the chloride channel forming the apical membrane were followed for 60 to 90 minutes. The maximum inhibitory effect (in %) of the POTs on the ATPase activity and the effective time (ET50), which is the time necessary to reach 50% of the maximum effects (in minutes), was determined by measuring the % decrease of short circuit current (Isc, μA cm^–2) in the absence (100% activity) and presence of the POTs. All the experiments were performed at least in triplicates. Calculations of the ET50 and maximum effect values were performed using GraphPad Prism version 6.00 for Macintosh (GraphPad Software, La Jolla California USA).

SR Ca^2+-ATPase [2] = target: T1, SR Ca^2+-ATPase (Oryctolagus cuniculus, UniProt P04191); design: method as in PMID 22178669; details: cited from earlier work; for pIC50: previously reported; for Type of inhibition of Ca^2+-ATPase: regarding the natural ligand MgATP
T1 construct: Isolated sarcoplasmic reticulum vesicles (SRVs), prepared from rabbit skeletal muscles as described elsewhere; from tissue; host or cells: rabbit skeletal muscle, sarcoplasmic reticulum vesicles

Na^+/K^+-ATPase = details: previous studies; cited from earlier work
SR Ca^2+-ATPase [3] = target: T1, SR Ca^2+-ATPase; assay: Steady-state SR Ca2+-ATPase ATP hydrolysis, coupled pyruvate kinase/lactate dehydrogenase assay; format: biochemical, rabbit; details: for Type of inhibition of Ca^2+-ATPase: Lineweaver-Burk, TeW6 at 100 μM; for pIC50: SR vesicles from skeletal muscle, 25 °C, 2.5 mM ATP, calcimycin 4% (w/w)
Method: All reagents used for the preparation of the calcium pump vesicles were purchased from Sigma-Aldrich (Portugal). Isolated sarcoplasmic reticulum vesicles (SRVs), prepared from rabbit skeletal muscles as described elsewhere,[33] were suspended in 0.1 M KCl, 10 mM HEPES (pH 7.0), diluted 1 : 1 with 2.0 M sucrose and frozen in liquid nitrogen for storage at –80 °C. The protein concentration was determined spectrophotometrically at 595 nm in the presence of 0.125% of sodium dodecyl sulphate (SDS) by Bradford method with bovine serum albumin as a standard. The percentage of each protein present in the SRV preparations was determined by densitometry analysis of SDS-PAGE (7.5% acrylamide) protein bands. The SR Ca^2+-ATPase constituted at least 70% of the total protein amount in the SR-vesicles according to SDS-PAGE. The sarcoplasmic reticulum Ca^2+-ATPase-1 (SERCA-1) was the predominant isoform in our SR preparations.[42]
Steady-state assays of the SR Ca^2+-ATPase were measured spectrophotometrically at 25 °C using the coupled enzyme pyruvate kinase/lactate dehydrogenase assay (Scheme 1) as described elsewhere.[42] Briefly, after the addition of the enzymes (pyruvate kinase and lactate dehydrogenase) and the substrate phosphoenolpyruvate to the medium, the experiment was initiated by adding NADH (0.25 mM) and the vesicles containing Ca^2+-ATPase (10 μg mL^–1).
ATP (2.5 mM) was added and the absorbance was recorded for about 1 minute (basal activity). Afterwards, the calcium ionophore calcimycin 4% (w/w), which releases again the Ca^2+ ions, that were pumped in by the ATPase, was added and the decreasing NADH absorbance at 340 nm was measured for about 2 minutes (uncoupled ATPase activity). This was done to increase the ATPase activity (due to the ionophore-mediated impairment of the Ca^2+ gradient) in order to better study the effect of the inhibitors and to ensure that the SR Ca^2+-ATPase vesicles are not leaky. For the experiments including POTs, freshly prepared POT solutions (10 mM and 1 mM for all POTs except for Se2W29 1 mM and 0.1 mM) were added to the medium prior to the addition of SR Ca^2+-ATPase. The ATPase activity and its inhibition was measured taking into account the decrease of the OD (optical density) per minute in the absence (100%) and in the presence of the investigated POTs.[33] The detection system was not affected by the POTs themselves (not even at their highest concentrations), which was confirmed by a rapid decrease in absorbance at 340 nm upon addition of 40 μM ADP after the assay. All experiments were performed at least in triplicates. The inhibitory power of the investigated POTs was evaluated by determining the respective IC50 value, that is, the POT concentration needed to induce a 50% inhibition of the Ca^2+-ATPase enzyme activity.

T1 sequence (P04191 1-994 isoform P04191-2): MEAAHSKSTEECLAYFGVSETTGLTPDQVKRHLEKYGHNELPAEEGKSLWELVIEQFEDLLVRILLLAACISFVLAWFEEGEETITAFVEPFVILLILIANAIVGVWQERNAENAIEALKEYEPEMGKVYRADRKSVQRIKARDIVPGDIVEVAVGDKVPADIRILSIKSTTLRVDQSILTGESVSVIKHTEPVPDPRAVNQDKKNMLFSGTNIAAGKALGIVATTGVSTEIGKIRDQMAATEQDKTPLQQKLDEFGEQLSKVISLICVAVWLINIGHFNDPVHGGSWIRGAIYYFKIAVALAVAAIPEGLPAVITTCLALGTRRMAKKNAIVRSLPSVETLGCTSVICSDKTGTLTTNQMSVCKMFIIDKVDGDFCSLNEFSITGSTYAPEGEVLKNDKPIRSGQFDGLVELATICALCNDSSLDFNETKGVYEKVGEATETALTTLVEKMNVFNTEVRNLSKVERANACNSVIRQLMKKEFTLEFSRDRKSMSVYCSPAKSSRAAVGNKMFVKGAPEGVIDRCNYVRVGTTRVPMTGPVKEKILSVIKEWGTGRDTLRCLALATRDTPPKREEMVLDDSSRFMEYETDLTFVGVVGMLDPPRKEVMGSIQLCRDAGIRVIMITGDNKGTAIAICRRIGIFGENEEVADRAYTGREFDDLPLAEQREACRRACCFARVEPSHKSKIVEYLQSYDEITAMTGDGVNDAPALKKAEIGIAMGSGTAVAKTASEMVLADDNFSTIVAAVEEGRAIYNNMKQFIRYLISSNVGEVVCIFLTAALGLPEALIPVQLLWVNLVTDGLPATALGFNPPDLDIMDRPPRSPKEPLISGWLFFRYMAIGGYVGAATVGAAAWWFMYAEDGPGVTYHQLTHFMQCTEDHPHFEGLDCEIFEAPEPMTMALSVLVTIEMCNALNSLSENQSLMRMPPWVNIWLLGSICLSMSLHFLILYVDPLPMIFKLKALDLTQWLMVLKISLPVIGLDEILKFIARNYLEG

| Molecule | ET50 (time to reach 50% of the maximum effect) ([1]; 10 μM compound) | Maximum inhibition ([1]; 10 μM compound) [%] | pIC50 (SR Ca^2+-ATPase [3]) | Effect on ATPase activity after 30 minutes ([1]; 10 μM compound) | other results |
| --- | --- | --- | --- | --- | --- |
| C[C@@H]1O[C@@H](O[C@H]2C[C@@H](O)[C@]3(CO)[C@H]4[C@H](O)C[C@]5(C)[C@@H](C6=CC(=O)OC6)CC[C@]5(O)[C@@H]4CC[C@]3(O)C2)[C@H](O)[C@H](O)[C@H]1O [Ouabain, reference compound] | 3.2 ± 0.2 min and 3.2 min and 3.2 (10 μM) min | 100 | – | – | – |
| [O]=[V]([O-])([O-])[O][V]1(=[O])[O][V]2(=[O])[O][V](=[O])([O][V](=[O])([O-])[O-])[O][V](=[O])([O]2)[O][V]2(=[O])[O][V](=[O])([O][V](=[O])([O-])[O-])[O][V](=[O])([O]1)[O]2 (stereo not shown) [V10, decavanadate] | – | – | – | – | pIC50 (SR Ca^2+-ATPase [2]): 4.82; Type of inhibition of Ca^2+-ATPase (SR Ca^2+-ATPase [2]): non-competitive |
| [O]=[W](=[O])([OH])[OH] [orthotungstate] | – | – | – | – | pIC50 (SR Ca^2+-ATPase [2]): 3.40; pIC50 (Na^+/K^+-ATPase): 2.82 |
| K6H2[TiW11CoO40]·13H2O [CoW11Ti] | 10 (10 μM) min | 75 | – | – | – |
| K6[α-P2W18O62]·14H2O | 4.3 (10 μM) min | ~100 | – | – | Type of inhibition of Ca^2+-ATPase (SR Ca^2+-ATPase [3]): mixed type of inhibition; ET50 (time to reach 50% of the maximum effect) ([1]; 0.5 μM compound): 8.2 (0.5 μM) min; Maximum inhibition ([1]; 0.5 μM compound): 86%; ET50 (time to reach 50% of the maximum effect) ([1]; 1 μM compound): 6.5 (1 μM) min; Maximum inhibition ([1]; 1 μM compound, 1 µM): 99% |
| K9(C2H8N)5[H10Se2W29O103]·30H2O | – | – | – | – | ET50 (time to reach 50% of the maximum effect) ([1]; 1 μM compound): 6.5 (1 μM) min; Maximum inhibition ([1]; 1 μM compound): 14% |
| K12[α-H2P2W12O48]·16H2O | – | – | 4.96 | no effect | – |
| K14[As2W19O67(H2O)]·23H2O | – | – | 4.55 | no effect | – |
| Na6[TeW6O24]·22H2O | 60 (10 μM) min | 10 | 3.70 | – | Type of inhibition of Ca^2+-ATPase (SR Ca^2+-ATPase [3]): mixed type of inhibition |
| Na9[B-α-AsW9O33]·27H2O | 8.5 min and 8.5 (10 μM) min | 66 | 4.70 | – | – |
| Na10[A-α-SiW9O34]·16H2O | – | – | 4.80 | no effect | – |
| Na12[H4W22O74]·50H2O | – | – | 4.17 | no effect | – |
| decaniobate [Nb10] | – | – | – | – | pIC50 (SR Ca^2+-ATPase [2]): 4.46; Type of inhibition of Ca^2+-ATPase (SR Ca^2+-ATPase [2]): non-competitive |
